“Also recorded” adds a separate entry of the source.
What was measured:
[1] = test system: iPSC-derived excitatory cortical neurons (NGN2) with LOF mutation (knockout/KO); test: Optopatch multi-dimensional analysis of disease phenotype reversal and side effects; type: cell-based, human; details: for cell behavior projected onto phenotype/side effect space: KO cells, 8 concentrations from 0.28 to 600 μM, increasing concentration; for reversal of functional phenotype (WT vs KO), radar plot: KO neurons, 30 days in culture
Excerpt: In compound screening, multidimensional data may be reduced to a few parameters that can be used to rank and select compounds to advance. In disease modeling, for example, one uses hiPSC-derived neurons from patients and healthy controls, and screens for compounds that induce the disease cells to behave like healthy cells. The dimensionality reduction is described in FIG. 27-FIG. 29.
FIG. 27-FIG. 29 show multi-dimensional analysis with iPSC-derived excitatory cortical neurons (NGN2), 30 days in culture.
FIG. 27 is Radar plot showing a select subset of parameters normalized to values for wildtype (WT) neurons. […] The difference between WT and KO traces is the functional phenotype.
FIG. 28 is a diagram illustrating phenotype reversal and “side effects.” In the ˜300-dimensional space of recorded parameters, only two of which are shown, WT wells are clustered and KO wells are clustered. The vector between these populations represents the phenotype (red). Drug effects (blue) are deconstructed into components along (phenotype reversal) and orthogonal to (side effects) the phenotype vector. An ideal drug would undo the effects of the mutation and move the well from the KO cloud to the WT cloud.
FIG. 29 is a plot showing many wells projected onto the phenotype/side effect space. WT and KO wells are well separated along the phenotype direction. Application of the two compounds (8 concentrations from 0.28 to 600 μM) from FIG. 27 have increasing effects on KO cell behavior as the concentration increases. […] The connected drug points are in order of increasing concentration, and the two lines are experimental replicates on two consecutive weeks of experiment.

[2] = test system: hiPSC-derived motor neurons; test: Optopatch intrinsic excitability and pharmacological response, before and after compound addition; type: cell-based, human; details: 1 μM, before vs after addition, blue light stimulus
Excerpt: Firefly image with overlay (colored regions) of hiPSC-derived motor neurons are identified by automated analysis.
Example voltage recordings from selected cells, and the blue stimulus used to evoke firing: steps, pulse trains, and ramps are shown. […]
FIG. 21 is a raster plot where each point is an identified action potential and each row is a neuron from a single FOV.
Analysis overview: FIGS. 19-26 show the automated analysis workflow for measurements of intrinsic excitability and pharmacological response in hiPSC-derived motor neurons. Neurons are interrogated with a stimulus protocol (blue) designed to probe a broad range of spiking behaviors. All pixels capturing fluorescence from one neuron co-vary in time following that cell's unique firing pattern (FIG. 20). The temporal covariance is used to generate a weight mask for each cell (colored regions in FIG. 19); masked pixels are averaged for each frame in the movie to calculate the voltage traces. Each FOV was recorded twice, before and after addition of potassium channel opener ML213. […] From the fluorescence-time traces, each action potential in the dataset is identified (FIG. 21), and firing rate (FIG. 22), spike shape parameters (FIG. 23) and relative timings (FIG. 24 & FIG. 25) are measured as a function of stimulus. […]

[3] = test system: E18 rat hippocampal neurons; test: Optopatch pharmacology and high-throughput validation on 96-well Firefly; type: cell-based; details: for firing rate: 1 μM, 96-well plate, alternating columns vs vehicle; for drug-induced change in neuronal spiking behavior: neurons cultured 14 days, vehicle normalized to 1
Protocol: Concentration response curves are readily measured with the Optopatch platform (FIG. 31). All compounds show large effect sizes and good repeatability on two independent plates. Each symbol represents>100 cells in one well. All the data shown were measured in a single day.
The system is also approaching readiness for high-throughput drug screening. To test system uniformity and repeatability, ML-213 is added to alternating columns in a 96-well plate (FIG. 32-FIG. 37). The change in spike rate during the ramp is readily visible in each well and is uniform across the plate (FIG. 34-35). Using one parameter, number of spikes during the ramp, the Z′ of 0.31 indicates a failed call in 1 of 73,000 wells, sufficient for screening tens of thousands of compounds for phenotypic screens in neurons. There was a small drift in time as wells were read out serially at room temperature (FIG. 36). Recent improvements in automation control software have reduced the scan time per FOV from 30 seconds to 10 seconds, which will reduce scan time artifacts. Furthermore, the microscope will have a 5× increased imaging area, reducing the number of FOVs per well to 1 and further increasing screening speed.
FIGS. 30 & 31 show pharmacology e.g., with E18 rat hippocampal neurons cultured 14 days.
FIG. 30 is radar plots showing the drug-induced change in neuronal spiking behavior along many dimensions, tabulated at right. For each parameter, the vehicle is normalized to 1 (green); drug effects in orange.
FIG. 32-FIG. 37 show high-throughput validation for screening with E18 rat hippocampal neurons cultured for 14 days.
The blue light stimulus is shown below.

Compound | cell behavior projected onto phenotype/side effect space [1] | reversal of functional phenotype (WT vs KO), radar plot [1] | neuronal excitability / firing [2] | firing rate [3] | firing rate ([3]; listed as ML-213) | drug-induced change in neuronal spiking behavior [3]
Nc1ccncc1 [4-AP] | moves cell behavior toward and beyond WT behavior | substantially reversed the phenotype |  |  |  | 
Cc1cc(C)c(NC(=O)C2CC3CCC2C3)c(C)c1 (stereo not drawn) [ML213] |  |  | suppresses firing; also recorded: clear reduction in neuronal excitability | dramatically reduces firing rate in all wells tested | reduces firing | drive behavior in opposite directions
O=C1c2ccccc2C(Cc2ccncc2)(Cc2ccncc2)c2ccccc21 [XE-991] |  |  |  |  |  | drive behavior in opposite directions
Nc1nnc(-c2cccc(Cl)c2Cl)c(N)n1 [lamotrigine] | moves behavior away from both WT and KO | perturbed behavior but did not reverse the phenotype |  |  |  | 
